# Patent US12691186B2, “B7-H3 miniproteins, conjugates, and uses thereof” (priority 2023, dated 2026)
# What was measured:
# [1] = tested on: >6,500 different human proteins; experiment: Off-target binding, cell microarray platform (Retrogenix Assay) in HEK293 cells; conditions: biotin-labeled molecules
# Experimental: To evaluate potential off-target binding, eight biotin-labeled molecules were tested in a cell microarray platform (Charles River Lab, Retrogenix Assay) having >6,500 different human proteins spanning diverse functions and subcellular locations.
# Initially, two pools of molecules were tested. Pool #1 consisted of C298, C300, C302, C304, and pool #2 consisted of C306, C308, C310, and C312 at 2 μg/mL for each molecule. To perform this assay, HEK293 cells were plated on a dish and localized spots of cells were transiently over-expressed with a cDNA encoding for one of the >6,500 targets. Included in this library were two isoforms of CD276 (B7-H3) and B7-H3 related proteins (B7-1, B7-2, B7-H1/PD-L1, and B7-H2). The molecule pools were incubated on the fixed, over-expressing cell microarrays (n=2 per protein), and binding was visualized using Alexa Fluor 647 streptavidin fluorescence. All transfection efficiencies exceeded minimum thresholds for the microarray expression targets. Preliminary interactions identified from pooled results were re-spotted in duplicates, and each of the eight compounds were tested individually (n=2) at 2 μg/mL and/or in dose response against these targets as described above to validate the interactions.
# All positive control interactions were strong and passed quality control. Specific interactions observed (median SNR≥1) confirmed on-target B7-H3 binding in two different isoforms for each of the eight test molecules. These interactions with the primary target occurred after fixation and in live cells (absence of fixation). No significant additional interactions were confirmed for any test molecules outside of B7-H3, indicating high specificity for the primary target (data not shown).
# [2] = In vitro metabolic stability, kidney brush border membrane preparations (KBBM); type: in vitro ADME; parameters: unit not given here; conditions: mouse kidney brush border membrane preparation, 37° C.
# Experimental: (§1) Exemplary miniprotein conjugates were spiked into biological matrices at initial concentration between 1-2 μM. Tested matrices were varied by species (mouse, rat, human) and type (plasma, serum, and kidney brush border membrane preparations tested each from 0.625-100 μg/mL protein content). Tested conditions were incubated with TAs at 37° C. for 4 hours. At collection points of 0, 15, 30, 60, 120, 240 minutes, 50 μL of each condition were quenched by organic solvent (methanol or acetonitrile) or the addition of 4% phosphoric acid solution. Fractions of each quenched timepoint were subsequently assayed for parent TA concentration by high resolution LC-MS. Percent-parent-remaining-time plots were constructed from the ratio of each given time collection to the time-zero parent TA. Percent-parent-remaining in mouse serum and plasma for exemplary miniproteins are recorded in Table 8.
# [3] = In vitro metabolic stability, plasma; type: in vitro ADME; parameters: unit not given here; conditions: 37° C.
# Experimental: as §1
Molecule,background binding to untransfected HEK293 cells [1],In vitro Stability (mouse) - KBBM [2],In vitro Stability (mouse) - Plasma [3]
CC[C@H](C)[C@@H]1NC(=O)[C@H](Cc2ccccc2)NC(=O)[C@H](C)NC(=O)[C@H](CCCCNC)NC(=O)[C@H]([C@@H](C)CC)NC(=O)[C@H](CCC(N)=O)NC(=O)[C@H](C)NC(=O)[C@H](Cc2ccc(O)cc2)NC(=O)[C@H]([C@@H](C)O)NC(=O)[C@H](CC(C)C)NC(=O)[C@@H]2CSSC[C@@H](C(=O)N[C@@H](CO)C(N)=O)NC(=O)[C@H](CC(C)C)NC(=O)[C@H](CCC(=O)O)NC(=O)[C@H](CCCCNC)NC(=O)[C@H](C)NC(=O)[C@H](CCC(=O)O)NC(=O)[C@H](CO)NC(=O)[C@H](CC(C)C)NC(=O)[C@H]([C@@H](C)CC)NC(=O)[C@H](CC(N)=O)NC(=O)[C@H](C)NC(=O)[C@H](CO)NC(=O)[C@H](CCC(N)=O)NC(=O)[C@H](CSSC[C@H](NC(=O)CCOCCOCCOCCOCCNC(=O)CCCC[C@@H]3SC[C@@H]4NC(=O)N[C@@H]43)C(=O)N[C@@H](C)C(=O)N[C@@H](CCCNC(=N)N)C(=O)N[C@@H](CCC(=O)O)C(=O)N[C@@H](CCCCN)C(=O)N[C@@H]([C@@H](C)CC)C(=O)N[C@@H](C)C(=O)N[C@@H](C)C(=O)N[C@@H](CC(C)C)C(=O)N[C@@H](CO)C(=O)N[C@@H](CCC(=O)O)C(=O)N[C@@H]([C@@H](C)CC)C(=O)N[C@@H]([C@@H](C)CC)C(=O)N[C@@H](Cc3c[nH]c4ccccc34)C(=O)N[C@@H](CC(C)C)C(=O)N3CCC[C@H]3C(=O)N2)NC(=O)[C@@H]2CCCN2C(=O)[C@H](CC(=O)O)NC(=O)[C@H](CC(=O)O)NC(=O)[C@H](CC(N)=O)NC(=O)[C@H](CC(C)C)NC(=O)[C@H](C)NC(=O)[C@H](C)NC1=O [Compound C302],low-background binding,–,–
CC[C@H](C)[C@@H]1NC(=O)[C@H](Cc2ccccc2)NC(=O)[C@H](C)NC(=O)[C@H](CCCCNC)NC(=O)[C@H]([C@@H](C)CC)NC(=O)[C@H](CCC(N)=O)NC(=O)[C@H](C)NC(=O)[C@H](Cc2ccc(O)cc2)NC(=O)[C@H]([C@@H](C)O)NC(=O)[C@H](CC(C)C)NC(=O)[C@@H]2CSSC[C@@H](C(=O)N[C@@H](CO)C(N)=O)NC(=O)[C@H](CC(C)C)NC(=O)[C@H](CCC(=O)O)NC(=O)[C@H](CCCCNC)NC(=O)[C@H](C)NC(=O)[C@H](CCC(=O)O)NC(=O)[C@H](CO)NC(=O)[C@H](CC(C)C)NC(=O)[C@H]([C@@H](C)CC)NC(=O)[C@H](CCC(=O)O)NC(=O)[C@H](CO)NC(=O)[C@H](CO)NC(=O)[C@H](CCC(N)=O)NC(=O)[C@H](CSSC[C@H](NC(=O)CCOCCOCCOCCOCCNC(=O)CCCC[C@@H]3SC[C@@H]4NC(=O)N[C@@H]43)C(=O)N[C@@H](C)C(=O)N[C@@H](CCCC[N+](C)(C)C)C(=O)N[C@@H](CCC(=O)O)C(=O)N[C@@H](CCCCN)C(=O)N[C@@H]([C@@H](C)CC)C(=O)N[C@@H](C)C(=O)N[C@@H](C)C(=O)N[C@@H](CC(C)C)C(=O)N[C@@H](CO)C(=O)N[C@@H](CCC(=O)O)C(=O)N[C@@H]([C@@H](C)CC)C(=O)N[C@@H]([C@@H](C)CC)C(=O)N[C@@H](Cc3c[nH]c4ccccc34)C(=O)N[C@@H](CC(C)C)C(=O)N3CCC[C@H]3C(=O)N2)NC(=O)[C@@H]2CCCN2C(=O)[C@H](CC(=O)O)NC(=O)[C@H](CC(=O)O)NC(=O)[C@H](CC(N)=O)NC(=O)[C@H](CC(C)C)NC(=O)[C@H](C)NC(=O)[C@H](C)NC1=O [Compound C304],low-background binding,–,–
CC[C@H](C)[C@@H]1NC(=O)[C@H](CCCCN)NC(=O)[C@H](CCC(=O)O)NC(=O)[C@H](CCCC[N+](C)(C)C)NC(=O)[C@H](C)NC(=O)[C@@H](NC(=O)CCOCCOCCOCCOCCNC(=O)CCCC[C@@H]2SC[C@@H]3NC(=O)N[C@@H]32)CSSC[C@@H]2NC(=O)[C@@H]3CCCN3C(=O)[C@H](CC(=O)O)NC(=O)[C@H](CC(=O)O)NC(=O)[C@H](CC(N)=O)NC(=O)[C@H](CC(C)C)NC(=O)[C@H](C)NC(=O)[C@H](CCCCNC)NC(=O)[C@H]([C@@H](C)CC)NC(=O)[C@H](Cc3ccccc3)NC(=O)[C@H](C)NC(=O)[C@H](CCCCNC)NC(=O)[C@H]([C@@H](C)CC)NC(=O)[C@H](CCC(N)=O)NC(=O)[C@H](C)NC(=O)[C@H](Cc3ccc(O)cc3)NC(=O)[C@H]([C@@H](C)O)NC(=O)[C@H](CC(C)C)NC(=O)[C@H](CSSC[C@@H](C(=O)N[C@@H](CO)C(N)=O)NC(=O)[C@H](CC(C)C)NC(=O)[C@H](CCC(=O)O)NC(=O)[C@H](CCCCNC)NC(=O)[C@H](C)NC(=O)[C@H](CCC(=O)O)NC(=O)[C@H](CO)NC(=O)[C@H](CC(C)C)NC(=O)[C@H]([C@@H](C)CC)NC(=O)[C@H](CCC(=O)O)NC(=O)[C@H](CO)NC(=O)[C@H](CO)NC(=O)[C@H](CCC(N)=O)NC2=O)NC(=O)[C@@H]2CCCN2C(=O)[C@H](CC(C)C)NC(=O)[C@H](Cc2c[nH]c3ccccc23)NC(=O)[C@H]([C@@H](C)CC)NC(=O)[C@H]([C@@H](C)CC)NC(=O)[C@H](CCC(=O)O)NC(=O)[C@H](CO)NC(=O)[C@H](CC(C)C)NC(=O)[C@H](C)NC(=O)[C@H](C)NC1=O [Compound C306],low-background binding,>12,>12
CC[C@H](C)[C@@H]1NC(=O)[C@H](Cc2ccccc2)NC(=O)[C@H](C)NC(=O)[C@H](CCCCNC)NC(=O)[C@H]([C@@H](C)CC)NC(=O)[C@H](CCC(N)=O)NC(=O)[C@H](C)NC(=O)[C@H](Cc2ccc(O)cc2)NC(=O)[C@H](CC(N)=O)NC(=O)[C@H](CC(C)C)NC(=O)[C@@H]2CSSC[C@@H](C(=O)N[C@@H](CO)C(N)=O)NC(=O)[C@H](CC(C)C)NC(=O)[C@H](CCC(=O)O)NC(=O)[C@H](CCCCNC)NC(=O)[C@H](C)NC(=O)[C@H](CCC(=O)O)NC(=O)[C@H](CO)NC(=O)[C@H](CC(C)C)NC(=O)[C@H]([C@@H](C)CC)NC(=O)[C@H](CCC(=O)O)NC(=O)[C@H](CO)NC(=O)[C@H](CO)NC(=O)[C@H](CCC(N)=O)NC(=O)[C@H](CSSC[C@H](NC(=O)CCOCCOCCOCCOCCNC(=O)CCCC[C@@H]3SC[C@@H]4NC(=O)N[C@@H]43)C(=O)N[C@@H](C)C(=O)N[C@@H](CCCC[N+](C)(C)C)C(=O)N[C@@H](CCC(=O)O)C(=O)N[C@@H](CCCCN)C(=O)N[C@@H]([C@@H](C)CC)C(=O)N[C@@H](C)C(=O)N[C@@H](C)C(=O)N[C@@H](CC(C)C)C(=O)N[C@@H](CO)C(=O)N[C@@H](CCC(=O)O)C(=O)N[C@@H]([C@@H](C)CC)C(=O)N[C@@H]([C@@H](C)CC)C(=O)N[C@@H](Cc3c[nH]c4ccccc34)C(=O)N[C@@H](CC(C)C)C(=O)N3CCC[C@H]3C(=O)N2)NC(=O)[C@@H]2CCCN2C(=O)[C@H](CC(=O)O)NC(=O)[C@H](CC(=O)O)NC(=O)[C@H](CC(N)=O)NC(=O)[C@H](CC(C)C)NC(=O)[C@H](C)NC(=O)[C@H](C)NC1=O [Compound C310],low-background binding,–,–
CC[C@H](C)[C@@H]1NC(=O)[C@H](Cc2ccccc2)NC(=O)[C@H](C)NC(=O)[C@H](CCCCNC)NC(=O)[C@H]([C@@H](C)CC)NC(=O)[C@H](CCC(N)=O)NC(=O)[C@H](C)NC(=O)[C@H](Cc2ccc(O)cc2)NC(=O)[C@H]([C@@H](C)O)NC(=O)[C@H](CC(C)C)NC(=O)[C@@H]2CSSC[C@@H](C(=O)N[C@@H](CO)C(N)=O)NC(=O)[C@H](CC(C)C)NC(=O)[C@H](CCC(=O)O)NC(=O)[C@H](CCCCNC)NC(=O)[C@H](C)NC(=O)[C@H](CCC(=O)O)NC(=O)[C@H](CO)NC(=O)[C@H](CC(C)C)NC(=O)[C@H]([C@@H](C)CC)NC(=O)[C@H](CCC(=O)O)NC(=O)[C@H](CO)NC(=O)[C@H](CO)NC(=O)[C@H](CC(N)=O)NC(=O)[C@H](CSSC[C@H](NC(=O)CCOCCOCCOCCOCCNC(=O)CCCC[C@@H]3SC[C@@H]4NC(=O)N[C@@H]43)C(=O)N[C@@H](C)C(=O)N[C@@H](CCCC[N+](C)(C)C)C(=O)N[C@@H](CCC(=O)O)C(=O)N[C@@H](CCCCN)C(=O)N[C@@H]([C@@H](C)CC)C(=O)N[C@@H](C)C(=O)N[C@@H](C)C(=O)N[C@@H](CC(C)C)C(=O)N[C@@H](CO)C(=O)N[C@@H](CCC(=O)O)C(=O)N[C@@H]([C@@H](C)CC)C(=O)N[C@@H]([C@@H](C)CC)C(=O)N[C@@H](Cc3c[nH]c4ccccc34)C(=O)N[C@@H](CC(C)C)C(=O)N3CCC[C@H]3C(=O)N2)NC(=O)[C@@H]2CCCN2C(=O)[C@H](CC(=O)O)NC(=O)[C@H](CC(=O)O)NC(=O)[C@H](CC(N)=O)NC(=O)[C@H](CC(C)C)NC(=O)[C@H](C)NC(=O)[C@H](C)NC1=O [Compound C312],low-background binding,–,–
"C298 (CAXEKIAALSEIIWLPCLTYAQIXAFIAALNDDPCQSSEILSEAKELCS; Biotin-PEG4 N-term, methylated lysines, C-amide; SITE 3 trimethyllysine; SITE 24 dimethyllysine) [Compound C298]",low-background binding,–,–
